In assay [1] the test system is antibodies in sera from SARS patients (sera 1a, 1b, 2, 6, 37, 62, London, SARS-yellow, SARS-green). The class given is binding, human. On the set-up: Binding of serum 6 to linear peptides of protein X1 of SARS-CoV Urbani / Binding of serum 37 to linear peptides of protein X1 of SARS-CoV Urbani / Binding of serum 6 to looped/cyclic peptide (PEPSCAN-ELISA) / Binding of serum 37 to looped/cyclic peptide (PEPSCAN-ELISA) / Binding of serum 37 to looped/cyclic peptides of protein X1 of SARS-CoV Urbani / Binding of serum 6 to linear peptides of protein X2 / Binding of serum 37 to linear peptides of protein X2 / Binding of serum 37 to looped/cyclic peptides of protein X2 of SARS-CoV Urbani / Binding of serum 6 to linear peptides of protein M of SARS-CoV Urbani / Binding of serum 37 to linear peptides of protein M of SARS-CoV Urbani / Binding of serum 6 to looped/cyclic peptides of protein M of SARS-CoV Urbani / Binding of serum 37 to looped/cyclic peptides of protein M of SARS-CoV Urbani / Binding of serum 6 to linear peptides of protein X3 of SARS-CoV Urbani / Binding of serum 37 to linear peptides of protein X3 of SARS-CoV Urbani / Binding of serum 37 to looped/cyclic peptides of protein X3 of SARS-CoV Urbani / Binding of serum 6 to linear peptides of protein X4 of SARS-CoV Urbani / Binding of serum 37 to linear peptides of protein X4 of SARS-CoV Urbani / Binding of serum 37 to looped/cyclic peptides of protein X4 of SARS-CoV Urbani / Binding of serum 6 to linear peptides of protein X5 of SARS-CoV Urbani / Binding of serum 37 to linear peptides of protein X5 of SARS-CoV Urbani / Binding of serum 37 to looped/cyclic peptides of protein X5 of SARS-CoV Urbani / Binding of serum 6 to linear peptides of protein N of SARS-CoV Urbani / Binding of serum 37 to linear peptides of protein N of SARS-CoV Urbani / Binding of serum 6 to linear peptide (PEPSCAN-ELISA) / Binding of serum 1a to looped/cyclic peptides of protein N of SARS-CoV Urbani / Binding of serum 1b to looped/cyclic peptides of protein N of SARS-CoV Urbani / Binding of serum 2 to looped/cyclic peptides of protein N of SARS-CoV Urbani / Binding of serum 6 to looped/cyclic peptides of protein N of SARS-CoV Urbani / Binding of serum 37 to looped/cyclic peptides of protein N of SARS-CoV Urbani / Binding of serum 62 to looped/cyclic peptides of protein N of SARS-CoV Urbani / Binding of serum London to looped/cyclic peptides of protein N of SARS-CoV Urbani / Binding of serum SARS-green to looped/cyclic peptides of protein N of SARS-CoV Urbani: unit not given here.

Assay [2] deals with control sera (pooled serum of ten healthy LUMC hospital workers; commercial negative donor pooled serum from the Dutch bloodbank). The class given is binding, human. On the set-up: Binding of Control serum LUMC to linear peptides / Binding of Control serum Blood-bank to linear peptides / Binding of Control serum LUMC to looped peptides / Binding of Control Serum Blood-Bank to Looped peptides / Binding of Control serum LUMC to linear peptides of the protein M of SARS-CoV Urbani / Binding of Control serum Blood-bank to linear peptides of the protein M of SARS-CoV Urbani / Binding of Control serum LUMC to looped peptides of the protein M of SARS-CoV Urbani / Binding of Control Serum Blood-Bank to Looped peptides of the protein M of SARS-CoV Urbani: unit not given here.

Assay [3] has as its system rabbit serum obtained by immunizing a rabbit with the SARS-CoV strain Frankfurt 1. The class given is binding. On the set-up: Binding of a rabbit serum to linear peptides / Binding of a rabbit serum to looped peptides / Rabbit serum linear peptides / Rabbit serum looped peptides / Binding of a rabbit serum to linear peptides of protein N of SARS-CoV Urbani (Rabbit serum linear peptides) / Binding of a rabbit serum to looped/cyclic peptides of protein N of SARS-CoV Urbani (Rabbit serum looped peptides): unit not given here.

Turning to VVILRIGTQVLKTMS, in assay [1], the “Binding of serum 1a to linear peptides of protein X2” value is 0.6, the “Binding of serum 1a to looped/cyclic peptides of protein X2 of SARS-CoV Urbani” value was 0.4, the “Binding of serum 1b to linear peptides of protein X2” value came to 0.5 and the “Binding of serum 1b to looped/cyclic peptides of protein X2 of SARS-CoV Urbani” value turned out to be 0.4. Also, in assay [1], the “Binding of serum 2 to linear peptides of protein X2” value was 0.5, the “Binding of serum 2 to looped/cyclic peptides of protein X2 of SARS-CoV Urbani” value amounted to 0.3, the “Binding of serum 6 to linear peptides of protein X2” value is given as 0.5 and the “Binding of serum 6 to looped/cyclic peptides of protein X2 of SARS-CoV Urbani” value is on record as 0.3. In assay [1], the “Binding of serum 37 to linear peptides of protein X2” value was 0.6, the “Binding of serum 37 to looped/cyclic peptides of protein X2 of SARS-CoV Urbani” value came out at 0.3, the “Binding of serum 62 to linear peptides of protein X2” value was found to be 0.6 and the “Binding of serum 62 to looped/cyclic peptides of protein X2 of SARS-CoV Urbani” value is given as 0.4. Besides, in assay [1], the “Binding of serum London to linear peptides of protein X2” value was 0.4, the “Binding of serum London to looped/cyclic peptides of protein X2 of SARS-CoV Urbani” value worked out at 0.2, the “Binding of serum SARS-green to linear peptides of protein X2” value was determined as 0.5 and the “Binding of serum SARS-green to looped/cyclic peptides of protein X2 of SARS-CoV Urbani” value was 0.3. Further, in assay [1], the “Binding of serum SARS-yellow to linear peptides of protein X2” value is 0.6 and the “Binding of serum SARS-yellow to looped/cyclic peptides of protein X2 of SARS-CoV Urbani” value was 0.4. In assay [2], the “Binding of Control Serum Blood-Bank to Looped peptides” value is reported as 0.3, the “Binding of Control serum Blood-bank to linear peptides” value is given as 0.7, the “Binding of Control serum LUMC to linear peptides” value is recorded as 0.5 and the “Binding of Control serum LUMC to looped peptides” value stood at 0.3. In assay [3], the “Binding of a rabbit serum to linear peptides” value is recorded as 0.4 and the “Binding of a rabbit serum to looped peptides” value turned out to be 0.4.
For VVVHGYFTEVYYQLE, in assay [1], the “Binding of serum 1a to linear peptides of protein X1 of SARS-CoV Urbani” value is reported as 0.8, the “Binding of serum 1a to looped/cyclic peptides of protein X1 of SARS-CoV Urbani” value came to 0.6, the “Binding of serum 1b to linear peptides of protein X1 of SARS-CoV Urbani” value is recorded as 0.6 and the “Binding of serum 1b to looped/cyclic peptides of protein X1 of SARS-CoV Urbani” value is on record as 0.5. Further, in assay [1], the “Binding of serum 2 to linear peptides of protein X1 of SARS-CoV Urbani” value turned out to be 0.6, the “Binding of serum 2 to looped/cyclic peptides of protein X1 of SARS-CoV Urbani” value worked out at 0.5, the “Binding of serum 6 to linear peptides of protein X1 of SARS-CoV Urbani” value is given as 0.4 and the “Binding of serum 6 to looped/cyclic peptides of protein X1 of SARS-CoV Urbani” value came out at 0.3. In assay [1], the “Binding of serum 37 to linear peptides of protein X1 of SARS-CoV Urbani” value is 0.6, the “Binding of serum 37 to looped/cyclic peptides of protein X1 of SARS-CoV Urbani” value is recorded as 0.5, the “Binding of serum 62 to linear peptides of protein X1 of SARS-CoV Urbani” value turned out to be 0.4 and the “Binding of serum 62 to looped/cyclic peptides of protein X1 of SARS-CoV Urbani” value amounted to 0.5. In addition, in assay [1], the “Binding of serum London to linear peptides of protein X1 of SARS-CoV Urbani” value was 0.2, the “Binding of serum London to looped/cyclic peptides of protein X1 of SARS-CoV Urbani” value was determined as 0.2, the “Binding of serum SARS-green to linear peptides of protein X1 of SARS-CoV Urbani” value amounted to 0.3 and the “Binding of serum SARS-green to looped/cyclic peptides of protein X1 of SARS-CoV Urbani” value is 0.3. In addition, in assay [1], the “Binding of serum SARS-yellow to linear peptides of protein X1 of SARS-CoV Urbani” value amounted to 0.3 and the “Binding of serum SARS-yellow to looped/cyclic peptides of protein X1 of SARS-CoV Urbani” value is listed as 0.4. Further, in assay [2], the “Binding of Control Serum Blood-Bank to Looped peptides” value was found to be 0.4, the “Binding of Control serum Blood-bank to linear peptides” value was 0.5, the “Binding of Control serum LUMC to linear peptides” value was found to be 1.1 and the “Binding of Control serum LUMC to looped peptides” value was found to be 0.7. Also, in assay [3], the “Binding of a rabbit serum to linear peptides” value is on record as 0.1 and the “Binding of a rabbit serum to looped peptides” value is recorded as 0.6.
Regarding VYHITVSQIQLSLLK, in assay [1], the “Binding of serum 1a to linear peptides of protein X2” value was found to be 0.6, the “Binding of serum 1a to looped/cyclic peptides of protein X2 of SARS-CoV Urbani” value is reported as 0.5, the “Binding of serum 1b to linear peptides of protein X2” value was found to be 0.5 and the “Binding of serum 1b to looped/cyclic peptides of protein X2 of SARS-CoV Urbani” value worked out at 0.2. In assay [1], the “Binding of serum 2 to linear peptides of protein X2” value is given as 0.5, the “Binding of serum 2 to looped/cyclic peptides of protein X2 of SARS-CoV Urbani” value is listed as 0.2, the “Binding of serum 6 to linear peptides of protein X2” value stood at 0.5 and the “Binding of serum 6 to looped/cyclic peptides of protein X2 of SARS-CoV Urbani” value is 0.6. In assay [1], the “Binding of serum 37 to linear peptides of protein X2” value is on record as 0.7, the “Binding of serum 37 to looped/cyclic peptides of protein X2 of SARS-CoV Urbani” value turned out to be 0.4, the “Binding of serum 62 to linear peptides of protein X2” value came out at 0.4 and the “Binding of serum 62 to looped/cyclic peptides of protein X2 of SARS-CoV Urbani” value is 0.6. Further, in assay [1], the “Binding of serum London to linear peptides of protein X2” value is 0.4, the “Binding of serum London to looped/cyclic peptides of protein X2 of SARS-CoV Urbani” value is 1.3, the “Binding of serum SARS-green to linear peptides of protein X2” value was 0.2 and the “Binding of serum SARS-green to looped/cyclic peptides of protein X2 of SARS-CoV Urbani” value was 0.3. Moreover, in assay [1], the “Binding of serum SARS-yellow to linear peptides of protein X2” value turned out to be 0.7 and the “Binding of serum SARS-yellow to looped/cyclic peptides of protein X2 of SARS-CoV Urbani” value came to 0.3. For the same sequence, in assay [2], the “Binding of Control Serum Blood-Bank to Looped peptides” value worked out at 0.6, the “Binding of Control serum Blood-bank to linear peptides” value was found to be 0.5, the “Binding of Control serum LUMC to linear peptides” value stood at 0.7 and the “Binding of Control serum LUMC to looped peptides” value amounted to 0.4. Moreover, in assay [3], the “Binding of a rabbit serum to linear peptides” value is 0.9 and the “Binding of a rabbit serum to looped peptides” value came to 0.4.
Consider VYRINWVTGGIAIAM, for which, in assay [1], the “Binding of serum 1a to linear peptides of protein M of SARS-CoV Urbani” value was found to be 0.9, the “Binding of serum 1a to looped/cyclic peptides of protein M of SARS-CoV Urbani” value worked out at 0.7, the “Binding of serum 1b to linear peptides of protein M of SARS-CoV Urbani” value worked out at 0.8 and the “Binding of serum 1b to looped/cyclic peptides of protein M of SARS-CoV Urbani” value is 0.4. For the same sequence, in assay [1], the “Binding of serum 2 to linear peptides of protein M of SARS-CoV Urbani” value amounted to 0.8, the “Binding of serum 2 to looped/cyclic peptides of protein M of SARS-CoV Urbani” value amounted to 0.6, the “Binding of serum 6 to linear peptides of protein M of SARS-CoV Urbani” value is recorded as 1.0 and the “Binding of serum 6 to looped/cyclic peptides of protein M of SARS-CoV Urbani” value amounted to 0.5. Further, in assay [1], the “Binding of serum 37 to linear peptides of protein M of SARS-CoV Urbani” value came out at 0.6, the “Binding of serum 37 to looped/cyclic peptides of protein M of SARS-CoV Urbani” value is 0.7, the “Binding of serum 62 to linear peptides of protein M of SARS-CoV Urbani” value was 0.6 and the “Binding of serum 62 to looped/cyclic peptides of protein M of SARS-CoV Urbani” value worked out at 1.1. Also, in assay [1], the “Binding of serum London to linear peptides of protein M of SARS-CoV Urbani” value was 0.6, the “Binding of serum London to looped/cyclic peptides of protein M of SARS-CoV Urbani” value is listed as 0.2, the “Binding of serum SARS-green to linear peptides of protein M of SARS-CoV Urbani” value was 0.7 and the “Binding of serum SARS-green to looped/cyclic peptides of protein M of SARS-CoV Urbani” value is 0.3. Also, in assay [1], the “Binding of serum SARS-yellow to linear peptides of protein M of SARS-CoV Urbani” value is 0.3 and the “Binding of serum SARS-yellow to looped/cyclic peptides of protein M of SARS-CoV Urbani” value is 0.8. In assay [2], the “Binding of Control Serum Blood-Bank to Looped peptides of the protein M of SARS-CoV Urbani” value was 0.7, the “Binding of Control serum Blood-bank to linear peptides of the protein M of SARS-CoV Urbani” value amounted to 0.7, the “Binding of Control serum LUMC to linear peptides of the protein M of SARS-CoV Urbani” value was 1.0 and the “Binding of Control serum LUMC to looped peptides of the protein M of SARS-CoV Urbani” value stood at 0.8. In assay [3], the “Rabbit serum linear peptides” value was determined as 0.3 and the “Rabbit serum looped peptides” value worked out at 0.4.

The record behind these values is patent US20070128217A1 (priority 2003, published 2007).
